Earlier results in patent US20230399457A1, “Bioactive Synthetic Copolymer, Bioactive Macromolecule and Related Methods Thereof” (Agency for Science, Technology and Research, priority 2020, published 2023).

Tested on: rats

For “AGQWHRVSVRWGC [A5G81, laminin-derived peptide]”, the wound healing is listed as “facilitate wound healing in rats”.
